One assay deals with T1, HIV-1 protease (Human immunodeficiency virus type 1 group M subtype B, UniProt P04585).
T1 construct: catalytically active dimeric HIV-1 protease
Briefly: HIV-1 protease enzyme-inhibitory assay (Toth and Marshall). The following applies: for Ki (nM) / Ki: HIV-1 protease inhibitory activity. Format: biochemical. The method, then: (§1) The ability of the nilotinib subunit, pyridinyl-pyrimidinyl amino benzamides to serve as P2 ligands in the S2 subsite of HIV-1 protease was investigated. The HIV-1 protease inhibitory activity of these compounds was evaluated in an enzyme-inhibitory assay reported by Toth and Marshall. […] We also determined the antiviral activity of these inhibitors in MT-2 human-T-lymphoid cells exposed to HIVLAI. […] We then examined a pyridyl thiazole heterocycle in place of the pyridyl pyrimidinyl scaffold in compounds 5a-d.

A further assay relates to HIVLAI. Briefly: antiviral activity in MT-2 human-T-lymphoid cells exposed to HIVLAI. The format is cell-based, HIV-1. As for the experimental part:
as §1

[1] abbreviates: antiviral, MT-2 cells exposed to HIVLAI, Table 1 and text.
Setting [2] is: Human immunodeficiency virus 1, MT2, antiviral, MT-2 cells exposed to HIVLAI, Table 1 and text, read-out: IC50.
Where [3] appears, read: Human immunodeficiency virus 1, MT2, antiviral, MT-2 cells exposed to HIVLAI, Table 2, read-out: IC50.

“And” between values parts separate entries of the source, which are not always exact repeats. Identical values can stand only once. Like-named read-outs stand apart in the source and are kept apart here.

As for `Cc1ccc(C(=O)N[C@@H](Cc2ccccc2)[C@H](O)CN(CC(C)C)S(=O)(=O)c2ccc3nc(NC4CC4)sc3c2)cc1Nc1cc(-c2cccnc2)ncn1`, at HIV-1 protease, the “Ki (nM)” value is listed as “Low nM”. Further, in the assay on HIVLAI (setting [1]), the “IC50 (nM)” value is “Low nM”.

Turning to `COc1ccc(S(=O)(=O)N(CC(C)C)C[C@@H](O)[C@H](Cc2ccccc2)NC(=O)c2cccc(Nc3nc(-c4cccnc4)cs3)c2)cc1`, the “Ki (nM)” value at HIV-1 protease is listed as “Low nM”. Besides, the “IC50 (nM)” value with HIVLAI (setting [1]) is recorded as “Low nM”.

Regarding `CC(C)CN(C[C@@H](O)[C@H](Cc1ccccc1)NC(=O)c1cccc(Nc2nc(-c3cccnc3)cs2)c1)S(=O)(=O)c1ccc2nc(NC3CC3)sc2c1`, at HIV-1 protease, the “Ki (nM)” value is given as “Low nM”. Further, in the assay with HIVLAI (setting [1]), the “IC50 (nM)” value is “Low nM”.

Usually Ki stands for the dissociation constant of the complex between target and ligand, obtained from inhibition or displacement. A high value points to a looser hold on the target. Usually IC50 stands for the concentration needed to halve the response being measured. `COc1ccc(S(=O)(=O)N(CC(C)C)C[C@@H](O)[C@H](Cc2ccccc2)NC(=O)c2ccc(C)c(Nc3nccc(-c4cccnc4)n3)c2)cc1` [Compound 5a, N-((2S,3R)-3-hydroxy-4-((N-isobutyl-4-methoxyphenyl)sulfonamido)-1-phenylbutan-2-yl)-4-methyl-3-((4-(pyridin-3-yl)pyrimidin-2-yl)amino)benzamide] registered a Ki at HIV-1 protease of 0.028 nM. Besides, at HIV-1 protease (text b193), the “enzyme inhibitory Ki” value came out at 28 PM. The half-maximal inhibitory concentration (IC50) in the assay on HIVLAI (setting [2]) amounted to 154 nM.

For the molecule `Cc1ccc(C(=O)N[C@@H](Cc2ccccc2)[C@H](O)CN(CC(C)C)S(=O)(=O)c2ccc(N)cc2)cc1Nc1nccc(-c2cccnc2)n1` [Compound 5b, N-((2S,3R)-4-((4-amino-N-isobutylphenyl)sulfonamido)-3-hydroxy-1-phenylbutan-2-yl)-4-methyl-3-((4-(pyridin-3-yl)pyrimidin-2-yl)amino)benzamide], the Ki at HIV-1 protease came to 0.17 nM. Also, the IC50 in the assay on HIVLAI (antiviral, MT-2 cells exposed to HIVLAI, Table 1 and text, read-out: IC50) stood at 66.8 nM.

Molecule `COc1ccc(S(=O)(=O)N(CC(C)C)C[C@@H](O)[C@H](Cc2cc(F)cc(F)c2)NC(=O)c2ccc(C)c(Nc3nccc(-c4cccnc4)n3)c2)cc1` [Compound 5c, N-((2S,3R)-1-(3,5-difluorophenyl)-3-hydroxy-4-((N-isobutyl-4-methoxyphenyl)sulfonamido)butan-2-yl)-4-methyl-3-((4-(pyridin-3-yl)pyrimidin-2-yl)amino)benzamide] yielded a Ki at HIV-1 protease of 0.58 nM. Besides, in the assay with HIVLAI (setting [2]), the IC50 amounted to 124 nM.

For the molecule `Cc1ccc(C(=O)N[C@@H](Cc2cc(F)cc(F)c2)[C@H](O)CN(CC(C)C)S(=O)(=O)c2ccc(N)cc2)cc1Nc1nccc(-c2cccnc2)n1` [Compound 5d, N-((2S,3R)-4-((4-amino-N-isobutylphenyl)sulfonamido)-1-(3,5-difluorophenyl)-3-hydroxybutan-2-yl)-4-methyl-3-((4-(pyridin-3-yl)pyrimidin-2-yl)amino)benzamide], the Ki at HIV-1 protease is 1.92 nM. In addition, in the assay on HIVLAI (setting [2]), the IC50 amounted to 212 nM. Moreover, the “reduction in antiviral activity” value in the assay with HIVLAI (over compound 5c) came out at 3 fold.

Consider `COc1ccc(S(=O)(=O)N(CC(C)C)C[C@@H](O)[C@H](Cc2ccccc2)NC(=O)c2ccc(C)c(Nc3nc(-c4cccnc4)cs3)c2)cc1` [Compound 5e, N-((2S,3R)-3-hydroxy-4-((N-isobutyl-4-methoxyphenyl)sulfonamido)-1-phenylbutan-2-yl)-4-methyl-3-((4-(pyridin-3-yl)thiazol-2-yl)amino)benzamide], for which the Ki on HIV-1 protease amounted to 38.3 nM. The IC50 with HIVLAI (setting [2]) was determined as 390 nM.

Take `COc1ccc(S(=O)(=O)N(CC(C)C)C[C@@H](O)[C@H](Cc2ccccc2)NC(=O)c2cccc(Nc3nc(-c4cccnc4)cs3)c2C)cc1` [Compound 5f, N-((2S,3R)-3-hydroxy-4-((N-isobutyl-4-methoxyphenyl)sulfonamido)-1-phenylbutan-2-yl)-2-methyl-3-((4-(pyridin-3-yl)thiazol-2-yl)amino)benzamide]: the Ki at HIV-1 protease was 19.3 nM. In addition, the IC50 in the assay on HIVLAI (setting [2]) is > 1000 nM. The “antiviral activity (in words)” value with HIVLAI (MT-2 cells exposed to HIVLAI) is “did not exhibit any appreciable antiviral activity”.

`COc1ccc(S(=O)(=O)N(CC(C)C)C[C@@H](O)[C@H](Cc2ccccc2)NC(=O)c2cc(C)cc(Nc3nc(-c4cccnc4)cs3)c2)cc1` [Compound 5g, N-((2S,3R)-3-hydroxy-4-((N-isobutyl-4-methoxyphenyl)sulfonamido)-1-phenylbutan-2-yl)-3-methyl-5-((4-(pyridin-3-yl)thiazol-2-yl)amino)benzamide] had a Ki at HIV-1 protease of 185 nM. The IC50 in the assay with HIVLAI (setting [2]) is > 1000 nM.

With `COc1ccc(S(=O)(=O)N(CC(C)C)C[C@@H](O)[C@H](Cc2ccccc2)NC(=O)c2cc(Nc3nc(-c4cccnc4)cs3)ccc2C)cc1` [Compound 5h, N-((2S,3R)-3-hydroxy-4-((N-isobutyl-4-methoxyphenyl)sulfonamido)-1-phenylbutan-2-yl)-2-methyl-5-((4-(pyridin-3-yl)thiazol-2-yl)amino)benzamide], the Ki at HIV-1 protease was 8.7 nM. Moreover, the half-maximal inhibitory concentration (IC50) in the assay with HIVLAI (setting [2]) was determined as 580 nM.

For the molecule `COc1ccc(S(=O)(=O)N(CC(C)C)C[C@@H](O)[C@H](Cc2ccccc2)NC(=O)c2ccc(C)c(Nc3nc(-c4cccnc4)cs3)c2C)cc1` [Compound 5i, N-((2S,3R)-3-hydroxy-4-((N-isobutyl-4-methoxyphenyl)sulfonamido)-1-phenylbutan-2-yl)-2,4-dimethyl-3-((4-(pyridin-3-yl)thiazol-2-yl)amino)benzamide], in the assay with HIVLAI (setting [2]), the IC50 is 510 nM.

In the case of `COc1ccc(S(=O)(=O)N(CC(C)C)C[C@@H](O)[C@H](Cc2ccccc2)NC(=O)c2ccc(C)c(Nc3nc(C)cs3)c2)cc1` [Compound 5j, N-((2S,3R)-3-hydroxy-4-((N-isobutyl-4-methoxyphenyl)sulfonamido)-1-phenylbutan-2-yl)-4-methyl-3-((4-methylthiazol-2-yl)amino)benzamide], the Ki at HIV-1 protease is 26 nM and 26.5 nM. For the same molecule, the IC50 in the assay with HIVLAI (Human immunodeficiency virus 1, MT2) is > 1000 nM. The “antiviral activity (in words)” value with HIVLAI (MT-2 cells exposed to HIVLAI) is “did not show any appreciable antiviral activity”.

For `COc1ccc(S(=O)(=O)N(CC(C)C)C[C@@H](O)[C@H](Cc2ccccc2)NC(=O)c2cccc(Nc3nc(C)cs3)c2C)cc1` [Compound 5k, N-((2S,3R)-3-hydroxy-4-((N-isobutyl-4-methoxyphenyl)sulfonamido)-1-phenylbutan-2-yl)-2-methyl-3-((4-methylthiazol-2-yl)amino)benzamide], the Ki at HIV-1 protease was 71.9 nM. In the assay on HIVLAI (setting [3]), the IC50 was > 1000 nM.

In turn, `COc1ccc(S(=O)(=O)N(CC(C)C)C[C@@H](O)[C@H](Cc2ccccc2)NC(=O)c2cc(C)cc(Nc3nc(C)cs3)c2)cc1` [Compound 5l, N-((2S,3R)-3-hydroxy-4-((N-isobutyl-4-methoxyphenyl)sulfonamido)-1-phenylbutan-2-yl)-3-methyl-5-((4-methylthiazol-2-yl)amino)benzamide] came in with a Ki at HIV-1 protease of 80 nM. Also, in the assay on HIVLAI (setting [3]), the IC50 was > 1000 nM.

`COc1ccc(S(=O)(=O)N(CC(C)C)C[C@@H](O)[C@H](Cc2ccccc2)NC(=O)c2cc(Nc3nc(C)cs3)ccc2C)cc1` [Compound 5m, N-((2S,3R)-3-hydroxy-4-((N-isobutyl-4-methoxyphenyl)sulfonamido)-1-phenylbutan-2-yl)-2-methyl-5-((4-methylthiazol-2-yl)amino)benzamide] registered a Ki on HIV-1 protease of 75.9 nM. Also, the IC50 with HIVLAI (setting [3]) was > 1000 nM.

In turn, `COc1ccc(S(=O)(=O)N(CC(C)C)C[C@@H](O)[C@H](Cc2ccccc2)NC(=O)c2ccc(C)c(Nc3nc(C(F)(F)F)cs3)c2)cc1` [Compound 5n, N-((2S,3R)-3-hydroxy-4-((N-isobutyl-4-methoxyphenyl)sulfonamido)-1-phenylbutan-2-yl)-4-methyl-3-((4-(trifluoromethyl)thiazol-2-yl)amino)benzamide] returned a Ki at HIV-1 protease of 60.3 nM. The IC50 in the assay with HIVLAI (setting [3]) was > 1000 nM.

At HIV-1 protease, `COc1ccc(S(=O)(=O)N(CC(C)C)C[C@@H](O)[C@H](Cc2ccccc2)NC(=O)c2cccc(Nc3nc(C(F)(F)F)cs3)c2C)cc1` [Compound 5o, N-((2S,3R)-3-hydroxy-4-((N-isobutyl-4-methoxyphenyl)sulfonamido)-1-phenylbutan-2-yl)-2-methyl-3-((4-(trifluoromethyl)thiazol-2-yl)amino)benzamide] returned a Ki of 72 nM. Also, the IC50 in the assay on HIVLAI (setting [3]) was > 1000 nM.

Molecule `COCc1csc(Nc2ccc(C)c(C(=O)N[C@@H](Cc3ccccc3)[C@H](O)CN(CC(C)C)S(=O)(=O)c3ccc(OC)cc3)c2)n1` [Compound 5p, N-((2S,3R)-3-hydroxy-4-((N-isobutyl-4-methoxyphenyl)sulfonamido)-1-phenylbutan-2-yl)-5-((4-(methoxymethyl)thiazol-2-yl)amino)-2-methylbenzamide] returned a Ki on HIV-1 protease of 18 nM. In addition, the IC50 with HIVLAI (setting [2]) and with HIVLAI (setting [3]) was 630 nM in each case.
